# Measurements as given in EP0173527A2, “Insulin-selective somatostatin analogs” (THE SALK INSTITUTE FOR BIOLOGICAL STUDIES, priority 1984, dated 1986).
# Entries after “also recorded” stand apart in the source; their conditions may differ. Positions of bridges follow the written chain, without caps; N, C: chain ends.
# Key:
# [1] = tested on: cells of rat pituitary glands; assay: in vitro radioimmunoassay of growth hormone release from cultured rat pituitary cells, side-by-side comparison with somatostatin-14; assay type: cell-based; details: for biological activity / potency: comparative in vitro testing, compared with aSS-28
# Description: To determine the effectiveness of the peptides to inhibit the release of […], in vitro radioimmunoassays are carried out using aSS-28, [Lys^23]-aSS-28 and aSS(15-28) in side-by-side comparison with equimolar concentrations of somotostatin-14 having a known effectiveness to inhibit the release of growth hormone induced by the application of isobutyl methyl xanthine to pituitary cells. Cultures are used which include cells of rat pituitary glands removed some four to five days previously in a system that minimizes enzymatic degradation, generally following the procedure set forth in Vale et al., Methods in Enzymology, Hormones and Cyclic Nucleotides (1975) Vol. 37, p. 82. Both cultures of a defined standard medium and cultures which are considered optimal for the secretion of growth hormone, as a result of having additions of either 2% or 10% of serum from a foetal calf, are used for the comparative testing.
# [2] = synthetic SS-28; Pradayrol et al., FEBS Letters 109, 1980; cited from earlier work
# [3] = tested on: secretion of glucagon and insulin; assay: in vivo inhibition of insulin (and glucagon) secretion, potency relative to somatostatin-14; set-up: species or system rats; details: basal and stimulated insulin secretion in mammals, including humans and dogs; compared with somatostatin-14 and somatostatin-28
# Description: In vivo experiments are carried out with aSS-28, using the procedure described in Brown et al., Metabolism (1976) Vol. 25, pp. 1501-1503, to determine the potency, relative to somatostatin-14, to inhibit the secretion of glucagon and insulin stimulated by the administration of arginine to groups of rats.
substance,measurement,setting,value
H-Ala-Gly-Cys-Lys-Asn-Phe-Tyr-Trp-Hyl-Gly-Phe-Thr-Ser-Cys-OH [aSS(15-28)],biological activity / potency,[1],similarly biologically active although having somewhat lower potencies
H-Ser-Ala-Asn-Ser-Asn-Pro-Ala-Met-Ala-Pro-Arg-Glu-Arg-Lys-Ala-Gly-Cys-Lys-Asn-Phe-Phe-Trp-Lys-Thr-Phe-Thr-Ser-Cys-OH [SS-28],potency when administered in vivo,[2],increased potency
H-Ser-Val-Asp-Ser-Thr-Asn-Asn-Leu-Pro-Pro-Arg-Glu-Arg-Lys-Ala-Gly-Cys-Lys-Asn-Phe-Tyr-Trp-Hyl-Gly-Phe-Thr-Ser-Cys-OH [aSS-28],insulin-selectivity,[1]; inferred from GH inhibition compared with SS-14,likely insulin-selective; also recorded: extreme insulin-selectivity
same,inhibition of GH,"[1]; release of growth hormone induced by isobutyl methyl xanthine, compared with equimolar SS-14",substantially less than SS-14
same,potency to inhibit insulin secretion,[3],increased potency; also recorded: more potent than either somatostatin-14 or somatostatin-28
H-Ser-Val-Asp-Ser-Thr-Asn-Asn-Leu-Pro-Pro-Arg-Glu-Arg-Lys-Ala-Gly-Cys-Lys- Asn-Phe-Tyr-Trp-Lys-Gly-Phe-Thr-Ser-Cys-OH (H-SVDSTNNLPPRERKAGCKNFYWKGFTSC-OH; disulfide 17-28 (inferred); ends not checked) [[Lys 23]-aSS-28],biological activity / potency,[1],similarly biologically active although having somewhat lower potencies
